Source: PubChem BioAssay (NCI)
Where “and” joins values, the source holds several entries; their conditions need not be identical. Equal entries are not always repeated.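 All cell lines were grown in 96-well plates and treated with compound for 48 hours. The concentration for 50% growth inhibition is given as GI50. TGI marks complete inhibition of growth.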

Columns and labels:
Assay in all cases: DTP human tumour cell line panel, 48 h
[1] = tested on: SNB-75 CNS
[2] = tested on: IGROV1 ovarian
[3] = tested on: OVCAR-4 ovarian
[4] = tested on: HCT-116 colon
[5] = tested on: DMS 273 small cell lung
[6] = tested on: SN12C renal
[7] = tested on: NCI-H522 lung
[8] = tested on: SF-539 CNS
[9] = tested on: SR leukemia
[10] = tested on: MALME-3M melanoma
[11] = tested on: UACC-257 melanoma
[12] = tested on: LOX IMVI melanoma
[13] = tested on: SK-MEL-5 melanoma
[14] = tested on: SW-620 colon
[15] = tested on: HOP-92 NSCLC
[16] = tested on: SK-MEL-28 melanoma
[17] = tested on: U251 CNS
[18] = tested on: CAKI-1 renal
[19] = tested on: HOP-62 NSCLC
[20] = tested on: SF-295 CNS
[21] = tested on: UACC-62 melanoma
[22] = tested on: NCI-H23 lung
[23] = tested on: KM20L2 colon
[24] = tested on: CCRF-CEM leukemia
[25] = tested on: HOP-18 NSCLC
[26] = tested on: SNB-19 CNS
[27] = tested on: OVCAR-3 ovarian
[28] = tested on: UO-31 renal
[29] = tested on: RXF 393 renal
[30] = tested on: NCI-H460 lung
[31] = tested on: SF-268 CNS
[32] = tested on: HCC-2998 colon
[33] = tested on: XF 498 CNS
[34] = tested on: 786-0 renal
[35] = tested on: OVCAR-5 ovarian
[36] = tested on: M14 melanoma
[37] = tested on: KM12 colon
[38] = tested on: ACHN renal
[39] = tested on: A549 NSCLC
[40] = tested on: HT29 colon
[41] = tested on: MOLT-4 leukemia
[42] = tested on: COLO 205 colon
[43] = tested on: RXF-631 renal
[44] = tested on: HCT-15 colon
[45] = tested on: RPMI-8226 leukemia
[46] = tested on: A498 renal
[47] = tested on: SK-OV-3 ovarian
[48] = tested on: DMS 114 small cell lung
[49] = tested on: OVCAR-8 ovarian
[50] = tested on: DLD-1 colon
[51] = tested on: M19-MEL melanoma
[52] = tested on: SK-MEL-2 melanoma
[53] = tested on: HL-60(TB) leukemia
[54] = tested on: LXFL 529 NSCLC
[55] = tested on: SNB-78 CNS
[56] = tested on: EKVX NSCLC
[57] = tested on: NCI-H226 lung
[58] = tested on: TK-10 renal
[59] = tested on: K-562 leukemia

CCOc1ccccc1NC(=O)C(C#N)C1=C(Cl)C(=O)c2ccccc2C1=O (centres undefined)
GI50 [1]: 1.68 µM | TGI [1]: 3.94 µM and 3.09 µM | TGI [2]: 5.31 µM | GI50 [3]: 1.67 µM | TGI [3]: 3.42 µM and 3.04 µM | TGI [4]: 3.38 µM and 3.93 µM | TGI [5]: 3.35 µM and 3.47 µM | TGI [6]: 3.19 µM and 3.53 µM | TGI [7]: 4.22 µM | TGI [8]: 3.64 µM and 3.54 µM | TGI [9]: 3.73 µM | TGI [10]: 2.91 µM and 3.08 µM | GI50 [11]: 2.22 µM | TGI [11]: 2.25 µM and 6.7 µM | GI50 [12]: 1.38 µM | TGI [12]: 2.08 µM and 3.28 µM | TGI [13]: 2.86 µM and 3.13 µM | GI50 [14]: 2.81 µM | TGI [14]: 3.45 µM and 6.68 µM | GI50 [15]: 1.4 µM | TGI [15]: 3.65 µM and 3.19 µM | TGI [16]: 3.62 µM | GI50 [17]: 1.95 µM | TGI [17]: 3.14 µM and 3.82 µM | GI50 [18]: 1.81 µM | TGI [18]: 5 µM and 3.29 µM | TGI [19]: 19.7 µM | TGI [20]: 3.13 µM and 3.19 µM | TGI [21]: 3.24 µM and 3.36 µM | TGI [22]: 3.99 µM and 6.17 µM | GI50 [23]: 17.7 µM | GI50 [24]: 3.15 µM | TGI [25]: 2.85 µM | GI50 [26]: 3.07 µM | TGI [26]: 3.6 µM and 10.2 µM | GI50 [27]: 2 µM | TGI [27]: 2.97 µM and 5.04 µM | GI50 [28]: 1.51 µM | TGI [28]: 3.1 µM and 2.86 µM | TGI [29]: 3.43 µM and 3.25 µM | GI50 [30]: 3.45 µM | TGI [30]: 3.27 µM and 15.1 µM | TGI [31]: 4.79 µM | GI50 [32]: 12.3 µM | TGI [32]: 3.15 µM and 25.6 µM | GI50 [33]: 1.83 µM | TGI [33]: 3.75 µM and 3.24 µM | GI50 [34]: 0.899 µM | TGI [34]: 3.18 µM and 2.19 µM | TGI [35]: 3.57 µM and 3.55 µM | TGI [36]: 3.05 µM and 3.14 µM | GI50 [37]: 2.13 µM | TGI [37]: 3.23 µM and 4.59 µM | TGI [38]: 3.26 µM and 3.52 µM | TGI [39]: 3.74 µM | GI50 [40]: 14 µM | TGI [41]: 3.32 µM | GI50 [42]: 12.6 µM | TGI [42]: 3.43 µM and 27.9 µM | GI50 [43]: 6.8 µM | TGI [43]: 4.03 µM and 26.2 µM | TGI [44]: 2.94 µM | GI50 [45]: 3.34 µM | TGI [46]: 36.5 µM | TGI [47]: 41.5 µM | GI50 [48]: 1.66 µM | TGI [48]: 2.16 µM and 3.85 µM | GI50 [49]: 1.92 µM | TGI [49]: 2.06 µM and 4.59 µM | GI50 [50]: 2.14 µM | TGI [50]: 3.31 µM and 4.27 µM | GI50 [51]: 0.303 µM | TGI [51]: 0.351 µM and 0.872 µM | TGI [52]: 3.05 µM and 3.12 µM | GI50 [53]: 2.85 µM | TGI [54]: 3.25 µM and 3.16 µM | GI50 [55]: 2.03 µM | TGI [55]: 4.42 µM | GI50 [56]: 2.86 µM | TGI [56]: 2.83 µM and 5.82 µM | TGI [57]: 4.49 µM and 19 µM | GI50 [58]: 12.3 µM | TGI [58]: 3.84 µM and 25.8 µM | GI50 [59]: 2.93 µM
